Tested on: SKBR-3 cells
Assay: cell proliferation assay (BrdU incorporation), SKBR-3
Type: cell-based, human
Experimental: The SKBR-3 and T47-D cell cultures in which the assay procedures were performed are also well known and are available from sources well known in the art. Specifically, as is known, T-47D is an estrogen receptor positive (ER^+) human breast cancer cell line, and SK-BR-3 is an estrogen receptor negative (ER^−) human breast cancer cell line. The assay procedure which itself is well known in the art, involves determining incorporation of 5-bromo-2′-deoxyuridine (BrdU) into the cells. As is known, incorporation of less BrdU represents less cell proliferation (inhibition of cell proliferation), and this assay is accepted in the art as a measure of anti-proliferative or anti-tumor activity of the assayed agent or agents.
The estrogen receptor-positive (ER^+) cell line T-47D and the ER^−-cell line SK-BR-3 were cultured in Dulbecco's modification of Eagle's medium (DMEM Gibco BRL, Gaithersburg, Md.) supplemented with 10% fetal bovine serum (HyClone, Logan, Utah), 2 mM L-glutamine and 1% antibiotics-antimycotics (Gibco BRL). Cell lines were obtained from the American Type Culture Collection (ATCC, Rockville, Md., HTB-133 and HTB-30 for T47-D and SKBR-3, respectively). Cells were cultured at 37° C. in a humidified atmosphere containing 5% CO2.
Proliferation of cancer cell lines was determined using a commercial cell proliferation kit (Roche Diagnostics), essentially following the instructions of the manufacturer. Cells were seeded into 96-well tissue culture plates (Corning Incorporated, Corning, N.Y.) at a concentration of 3000 cells/well. After 24 hours, cells were treated with Compound 2 (AGN195183) and/or interferons (IFNs) or solvent alone. The appropriate concentrations of Compound 2 (AGN195183) used in this study were between 10^−11M and 10^−6M; IFNs concentrations were between 25 and 1000 Unit/ml. Culture media were changed every 72 hours. After 7days, 10 μl of 5-bromo-2′-deoxyuridine (BrdU) was added to each well. Incubation with BrdU was stopped 24 hours later by adding 100 μl of anti-BrdU antibody to each well. The amount of BrdU incorporated into the DNA of proliferating cells was assessed by measuring absorbance at 450 nm. Each experiment was performed in triplicate.
The growth inhibition observed in the cell cultures as a result of treatment with a combination of Compound 2 (AGN195183) of the invention and the interferons (IFNs) was analyzed for synergistic and additive effects.
Synergism was defined as: %A×% B>%AB
Additivity was defined as: %A×%B=%AB
where A and B are the effects of each individual agent and AB is the effect of the combination, in accordance with the teaching of Aapro et al., Cancer Chemother. Pharmacol., 10: 161 -166, 1983, and Marth et al., J. Natl. Cancer Inst., 77:1197-1202, 1986), both of which are expressly incorporated herein by reference.
Referring now to the graphs of FIGS. 1 through 12, each of these represents the results obtained in the above described assays where SKBR-3 and T47-D cells, respectively, were treated with a combination of Compound 2 of the invention and human recombinant interferon (IFN) α, β, and γ, respectively. The graph of FIG. 13 illustrates the results of treatment of these two cell cultures only with Compound 2 of the invention, without the use of any other anti-tumor agent. In each of these graphs the incorporation of 5-bromo-2′-deoxyuridine (BrdU) is plotted on the Y (vertical) axis and varying concentration of Compound 2 of the invention or varying concentration of IFNα. IFNβ or of IFNγ, respectively is plotted on the X (horizontal) axis. The concentration of the interferons is expressed in international units, as is accepted in the art, whereas the molar concentration of Compound 2 is plotted on a logarithmic scale. […]

`CC1(C)CCC(C)(C)c2c1cc(C(=O)Nc1cc(F)c(C(=O)O)c(F)c1)c(O)c2Cl` [Compound 2, 2,6-Difluoro-4-[(3-hydroxy-4-chloro-5,5,8 8-tetramethyl-5,6,7,8-tetrahydronaphthalene-2-carbonyl) -amino]-benzoic acid] was tested, and the “anti-proliferative effect of the combination (BrdU incorporation)” value (“anti-proliferative effect” below) (Compound 2 10 nM, IFNα varied, FIG. 1) was “synergistic effect”, the “anti-proliferative effect” value (Compound 2 10 nM, IFNα varied, FIG. 1, listed as AGN 195183) was “synergism” and the “anti-proliferative effect” value (Compound 2 10 nM, IFNβ varied, FIG. 2) was “significant synergistic effect”. For the same compound, the “anti-proliferative effect” value (Compound 2 10 nM, IFNβ varied, FIG. 2, listed as AGN 195183) was “synergism”, the “anti-proliferative effect” value (Compound 2 10 nM, IFNγ varied, FIG. 3) was “significant synergistic effect” and the “anti-proliferative effect” value (Compound 2 10 nM, IFNγ varied, FIG. 3, listed as AGN 195183) was “synergism”. The “anti-proliferative effect” value (IFNα 100 U/ml, Compound 2 varied, FIG. 4) was “significant synergistic effect”, the “anti-proliferative effect” value (IFNα 100 U/ml, Compound 2 varied, FIG. 4, listed as AGN 195183) was “synergism” and the “anti-proliferative effect” value (IFNβ 100 U/ml, Compound 2 varied, FIG. 5) was “significant synergistic effect”. For the same compound, the “anti-proliferative effect” value (IFNβ 100 U/ml, Compound 2 varied, FIG. 5, listed as AGN 195183) was “synergism”, the “anti-proliferative effect” value (IFNγ 100 U/ml, Compound 2 varied, FIG. 6) was “significant synergistic effect” and the “anti-proliferative effect” value (IFNγ 100 U/ml, Compound 2 varied, FIG. 6, listed as AGN 195183) was “synergism”.
